Results published in PMC5062470, “The mGluR2 positive allosteric modulator, SAR218645, improves memory and attention deficits in translational models of cognitive symptoms associated with schizophrenia” (Scientific Reports, 2016).
pEC50: −log10 of the molar value.

Experiments:
mice [1] = system: mice; parameters: method as in earlier work; settings: wide dose-range; cited from earlier work
mice [2] = system: mice; parameters: method as in earlier work; settings: cited from earlier work
Sprague-Dawley rats = test: Catalepsy test; assay type: in vivo; settings: 30, po
Method: Male Sprague-Dawley rats weighing 225–234 g were used. Each animal was placed such that their forepaws rested on a wooden dowel (1 × 18 cm) mounted horizontally 9 cm from the floor and 4 cm from one end of a white translucent plastic box (26 × 20 × 15 cm). The amount of time each rat spent with at least one forepaw on the bar was determined, for a maximum period of 540 s. This procedure was repeated three times. White noise was used during the acclimation and test periods to minimize the effects of outside noises. SAR218645 was administered alone at a dose of 30 mg/kg po. Haloperidol (1 mg/kg ip) was used alone and in co-administration with SAR218645 (1, 3, and 10 mg/kg, po). Statistics consisted of using a one-way ANOVA, followed by a post-hoc Dunnett’s test for individual comparisons. Ten animals per group were used.

human mGluR2 = human mGluR2 (Homo sapiens, UniProt Q14416); test: Forskolin-stimulated cAMP accumulation in HEK293 cells; assay type: cell-based; parameters: expressed in transfected cells; host or cells: HEK293 Flp-in-T-REx (inducible), co-expressing Gα16
human mGluR2, sequence (Q14416 19-872): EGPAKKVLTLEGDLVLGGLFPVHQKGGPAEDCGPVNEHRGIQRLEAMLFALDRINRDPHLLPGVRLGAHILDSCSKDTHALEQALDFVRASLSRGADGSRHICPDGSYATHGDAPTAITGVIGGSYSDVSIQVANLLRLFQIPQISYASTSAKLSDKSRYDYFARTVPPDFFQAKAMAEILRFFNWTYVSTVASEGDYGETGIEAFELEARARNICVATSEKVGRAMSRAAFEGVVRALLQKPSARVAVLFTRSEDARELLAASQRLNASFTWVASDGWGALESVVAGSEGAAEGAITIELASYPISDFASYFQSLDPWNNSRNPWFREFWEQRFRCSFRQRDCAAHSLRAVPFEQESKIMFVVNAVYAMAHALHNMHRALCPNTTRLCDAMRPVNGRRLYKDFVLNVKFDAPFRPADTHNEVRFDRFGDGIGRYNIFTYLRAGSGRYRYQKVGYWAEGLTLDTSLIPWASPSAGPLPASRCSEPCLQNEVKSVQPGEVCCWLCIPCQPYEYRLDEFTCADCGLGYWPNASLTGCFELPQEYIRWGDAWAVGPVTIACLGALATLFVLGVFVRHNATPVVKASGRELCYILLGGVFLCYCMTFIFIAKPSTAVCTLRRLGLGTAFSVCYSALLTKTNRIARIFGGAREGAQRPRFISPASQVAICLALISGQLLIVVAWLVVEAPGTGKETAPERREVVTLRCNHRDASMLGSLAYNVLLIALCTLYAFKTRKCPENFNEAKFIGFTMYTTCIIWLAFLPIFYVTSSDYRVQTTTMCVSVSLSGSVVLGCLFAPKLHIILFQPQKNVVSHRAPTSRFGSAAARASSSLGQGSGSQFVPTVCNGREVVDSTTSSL
Method: Recombinant human mGluR2 receptor and the excitatory amino acid transporter SLCA1 were stably expressed in a doxycycline inducible HEK293 Flp-in-T-Rex cell line. […] Cells were treated with the compounds, and cAMP production was induced with 1 μM Forskolin for 5 min. cAMP was detected using the CisBio HTRF detection kit. […] EC50 were calculated using 4-parameter curve fitting.

human mGluR6 = molecular target: T1, human mGluR6 (Homo sapiens, UniProt O15303); test: Multispan Allosteric Profiling panel, Ca2+ (Gqi5); assay type: cell-based
T1 construct: host or cells: HEK293 co-expressing Gqi5
T1 sequence (O15303 25-877): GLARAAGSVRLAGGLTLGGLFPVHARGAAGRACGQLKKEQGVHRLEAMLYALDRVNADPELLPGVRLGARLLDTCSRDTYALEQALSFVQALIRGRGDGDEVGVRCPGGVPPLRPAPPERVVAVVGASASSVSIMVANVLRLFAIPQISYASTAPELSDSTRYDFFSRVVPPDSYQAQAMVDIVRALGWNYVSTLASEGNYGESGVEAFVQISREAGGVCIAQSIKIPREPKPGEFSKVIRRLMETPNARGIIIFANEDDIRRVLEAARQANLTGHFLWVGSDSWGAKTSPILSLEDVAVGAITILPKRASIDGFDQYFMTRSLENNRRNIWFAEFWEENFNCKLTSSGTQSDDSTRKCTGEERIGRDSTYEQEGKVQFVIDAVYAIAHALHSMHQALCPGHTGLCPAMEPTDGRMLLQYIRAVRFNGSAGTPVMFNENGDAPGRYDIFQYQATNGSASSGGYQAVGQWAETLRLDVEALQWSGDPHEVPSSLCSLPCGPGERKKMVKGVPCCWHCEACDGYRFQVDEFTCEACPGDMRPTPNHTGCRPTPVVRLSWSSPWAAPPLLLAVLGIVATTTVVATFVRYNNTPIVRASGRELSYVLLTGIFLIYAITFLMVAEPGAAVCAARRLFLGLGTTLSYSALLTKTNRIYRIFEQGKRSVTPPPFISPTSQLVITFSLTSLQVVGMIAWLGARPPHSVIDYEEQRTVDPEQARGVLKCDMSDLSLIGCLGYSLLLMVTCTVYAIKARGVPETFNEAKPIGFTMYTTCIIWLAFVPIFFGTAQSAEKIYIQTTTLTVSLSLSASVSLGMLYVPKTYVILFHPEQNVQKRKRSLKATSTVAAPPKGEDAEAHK

rat mGluR2 = rat mGluR2 (Rattus norvegicus, UniProt P31421); test: [3H]LY341495 binding to membranes; parameters: expressed in transfected cells; host or cells: inducible HEK-293 cell line (membranes); settings: 10 μM SAR218645
rat mGluR2, sequence (P31421 19-872): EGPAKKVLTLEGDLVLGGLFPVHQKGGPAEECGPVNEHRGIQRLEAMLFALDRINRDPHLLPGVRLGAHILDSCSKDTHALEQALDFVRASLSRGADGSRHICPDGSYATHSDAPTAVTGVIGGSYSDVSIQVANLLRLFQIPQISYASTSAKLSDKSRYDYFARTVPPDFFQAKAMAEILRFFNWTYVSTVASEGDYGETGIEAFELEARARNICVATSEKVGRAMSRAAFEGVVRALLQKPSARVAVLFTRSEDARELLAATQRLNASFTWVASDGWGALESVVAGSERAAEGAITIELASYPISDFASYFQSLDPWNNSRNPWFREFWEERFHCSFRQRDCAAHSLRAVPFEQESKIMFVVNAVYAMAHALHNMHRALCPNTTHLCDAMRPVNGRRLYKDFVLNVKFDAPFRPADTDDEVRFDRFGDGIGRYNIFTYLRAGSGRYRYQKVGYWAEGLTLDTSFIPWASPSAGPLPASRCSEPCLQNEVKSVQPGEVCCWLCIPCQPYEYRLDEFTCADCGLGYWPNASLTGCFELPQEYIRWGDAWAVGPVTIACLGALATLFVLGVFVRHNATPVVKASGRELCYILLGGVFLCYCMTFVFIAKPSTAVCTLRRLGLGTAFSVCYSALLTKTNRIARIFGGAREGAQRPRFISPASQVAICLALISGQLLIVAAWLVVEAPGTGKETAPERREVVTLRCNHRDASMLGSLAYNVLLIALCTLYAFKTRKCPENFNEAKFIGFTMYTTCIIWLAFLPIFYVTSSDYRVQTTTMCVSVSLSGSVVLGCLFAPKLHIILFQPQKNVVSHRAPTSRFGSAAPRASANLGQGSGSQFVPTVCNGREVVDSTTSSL
Method: Binding assay was adapted from Johnson et al.[29]. […] Addition of 5–10 μg membrane protein initiated the incubation. After 45 min at room temperature, the incubation was terminated by rapid filtration followed by scintillation counting. Ki’s were calculated using 4-parameter curve fitting.

[3] = Plasma exposure and brain penetration after single oral dose; assay type: in vivo, mice; settings: male; for AUC(0-inf) / AUC(0-t): CD-1, mouse; for AUC(0-t): tlast 8 h; for Cmax: mouse, CD-1 mice
Method: Plasma and brain exposures of SAR218645 in male CD-1 mice (25–30 g at arrival) were measured after single oral doses of 1, 3 and 10 mg/kg. Mouse plasma samples (25.0 μl) were transferred into micro-centrifuge tubes (1.7 ml) and mixed with 50 μl of Internal Standard solution (500 ng/ml in acetonitrile). The tubes were vortex mixed for 1 min and centrifuged at 10,000 g for 5 min. An aliquot of the supernatant (50 μl) was transferred into an autosampler vial and mixed with 100 μl of water for LC/MS/MS analysis. Each mouse brain was first homogenized with 3.0 ml of 25% acetonitrile in water. The tissue homogenates (50.0 μl) were transferred into micro-centrifuge tubes (1.7 ml) and mixed with 100 μl of Internal Standard solution (500 ng/ml of A000597492 in acetonitrile). The tubes were vortex mixed for 1 min and centrifuged at 10,000 g for 5 min. An aliquot of the supernatant (50 μl) was transferred into an autosampler vial and mixed with 100 μl of water for LC/MS/MS analysis. The lower limits of quantitation (LLOQ) for SAR218645 were 0.500 ng/ml for plasma and 0.100 ng/ml for brain homogenate. The calibration curves were linear in the above prepared concentration ranges. The LLOQ for brain tissue was estimated to be approximately 0.80 ng/g. The pharmacokinetic parameters were calculated from the arithmetic mean of the group sample concentrations using the program WinNonLin 5.2., non-compartment model 200 for the extravascular routes.

[4] = system: approximately 180 different receptors, ion channels, enzymes, transporters and kinases; test: In vitro selectivity profile (CEREP and internal panels); assay type: binding; settings: up to 10 μM
Method: The effect of SAR218645 on approximately 180 different receptors, ion channels, enzymes, transporters and kinases (see Supplementary Material Table S1) was evaluated at a contract research organization (CEREP, Celle L’Evescault, France) using established protocols or through internal studies.

native mouse mGluR2 = molecular target: T2, native mouse mGluR2 (Mus musculus, UniProt Q14BI2); test: [35S]GTPγS binding to mouse cortex; assay type: biochemical; settings: absence of glutamate
T2 construct: SAR218645 acted as a pure mGluR2 PAM at native mouse mGluR2 in the cortex; from tissue; host or cells: mouse cortex membranes
T2 sequence (Q14BI2 19-872): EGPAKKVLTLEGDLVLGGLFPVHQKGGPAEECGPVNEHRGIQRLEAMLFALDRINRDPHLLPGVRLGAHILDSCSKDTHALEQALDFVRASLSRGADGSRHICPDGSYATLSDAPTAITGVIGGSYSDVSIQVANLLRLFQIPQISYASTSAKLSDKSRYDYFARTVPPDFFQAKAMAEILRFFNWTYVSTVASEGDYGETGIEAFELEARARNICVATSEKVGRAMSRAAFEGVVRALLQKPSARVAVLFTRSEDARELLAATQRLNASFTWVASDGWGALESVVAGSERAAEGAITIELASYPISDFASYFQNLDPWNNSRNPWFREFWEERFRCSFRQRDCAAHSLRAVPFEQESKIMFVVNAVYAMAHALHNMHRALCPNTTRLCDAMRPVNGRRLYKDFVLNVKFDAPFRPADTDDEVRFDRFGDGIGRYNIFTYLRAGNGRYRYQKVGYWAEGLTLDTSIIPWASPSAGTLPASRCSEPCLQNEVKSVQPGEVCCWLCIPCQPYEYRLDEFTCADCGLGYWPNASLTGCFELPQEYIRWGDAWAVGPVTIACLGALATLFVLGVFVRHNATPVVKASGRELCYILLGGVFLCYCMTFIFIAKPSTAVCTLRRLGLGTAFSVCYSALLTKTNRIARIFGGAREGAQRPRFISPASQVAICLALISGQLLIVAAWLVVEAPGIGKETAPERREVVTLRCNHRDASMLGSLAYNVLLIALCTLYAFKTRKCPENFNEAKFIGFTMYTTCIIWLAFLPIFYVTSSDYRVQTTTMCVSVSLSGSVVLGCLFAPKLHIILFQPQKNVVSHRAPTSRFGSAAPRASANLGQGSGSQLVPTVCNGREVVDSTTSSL
Method: The assay was performed in 96-well filtration plates in 250 μl total volume. […] For termination of the reaction, the plate was filtered and dried prior to adding 50 μl Microscint 40, and counted on the 1450 TopCount Microbeta Counter. EC50 were calculated using 4-parameter curve fitting.

What does the source list for `CC1(C)CCc2cc(OC[C@@H]3Cn4ccc(=O)nc4O3)ccc21` [SAR218645, (S)-2-(1,1-dimethyl-indan-5-yloxymethyl)-2,3-dihydro-oxazolo[3,2-a]pyrimidin-7-one]?
effect on the ability of haloperidol and risperidone to alleviate psychostimulant-induced hyperactivity (mice [1]): did not alter; effect on the activity of risperidone in the active avoidance test (mice [2]): did not interfere; Minimal active dose (Sprague-Dawley rats): >30 mg/kg; pEC50 (human mGluR2): 6.80; effect on glutamate-induced activation (human mGluR6; 10 μM SAR218645): no effect; calcium response to compound alone (human mGluR6; SAR218645 alone): did not elicit a calcium response; inhibition of [3H]LY341495 binding by compound alone (rat mGluR2): not inhibited; lowering of the Ki of glutamate (rat mGluR2): 3.5 fold; maximal binding, glutamate in the presence of SAR218645 (rat mGluR2; Fig. 5B): 90%; AUC(0-inf) ([3]; plasma, 1 mg/kg oral): 230 ng·h/mL; AUC(0-t) ([3]; plasma, 1 mg/kg oral): 230 ng·h/mL; AUC(0-inf) ([3]; plasma, 3 mg/kg oral): 540 ng·h/mL; AUC(0-t) ([3]; plasma, 3 mg/kg oral): 540 ng·h/mL; AUC(0-inf) ([3]; plasma, 10 mg/kg oral): 2400 ng·h/mL; AUC(0-t) ([3]; plasma, 10 mg/kg oral): 2300 ng·h/mL; Cmax ([3]; brain, 1 mg/kg oral): 32 ng/g; Cmax ([3]; brain, 3 mg/kg oral): 103 ng/g; Cmax ([3]; brain, 10 mg/kg oral): 339 ng/g; Cmax ([3]; plasma, 1 mg/kg oral): 131 ng/mL; Cmax ([3]; plasma, 3 mg/kg oral): 434 ng/mL; Cmax ([3]; plasma, 10 mg/kg oral): 1080 ng/mL; inhibition of radioligand binding, panel [4]: no interaction; intrinsic activity (native mouse mGluR2): did not have any intrinsic activity
